Source: PubChem BioAssay (NCI)
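Five compound concentrations were applied to cells in 96-well plates for 48 hours; endpoints were derived by simple linear interpolation of the resulting dose-response curve. Abbreviation: GI50, concentration required for 50% inhibition of growth. TGI marks complete inhibition of growth.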

How the values were obtained:
Assay in all cases: NCI tumour cell line growth inhibition, 48 h
[1] = system: OVCAR-3 ovarian
[2] = system: HS 578T breast
[3] = system: HCT-15 colon
[4] = system: SN12C renal
[5] = system: RPMI-8226 leukemia
[6] = system: COLO 205 colon
[7] = system: SF-268 CNS
[8] = system: UO-31 renal
[9] = system: HOP-62 NSCLC
[10] = system: NCI-H226 lung
[11] = system: MCF7 breast
[12] = system: EKVX NSCLC
[13] = system: UACC-62 melanoma
[14] = system: A549 NSCLC
[15] = system: HCC-2998 colon
[16] = system: HT29 colon
[17] = system: ACHN renal
[18] = system: T-47D breast
[19] = system: IGROV1 ovarian
[20] = system: OVCAR-8 ovarian
[21] = system: UACC-257 melanoma
[22] = system: OVCAR-4 ovarian
[23] = system: HCT-116 colon
[24] = system: NCI-H23 lung
[25] = system: SF-295 CNS
[26] = system: OVCAR-5 ovarian
[27] = system: U251 CNS
[28] = system: 786-0 renal
[29] = system: SF-539 CNS
[30] = system: MDA-MB-435
[31] = system: M14 melanoma
[32] = system: SNB-19 CNS
[33] = system: TK-10 renal
[34] = system: KM12 colon
[35] = system: SW-620 colon
[36] = system: SK-MEL-28 melanoma
[37] = system: MDA-MB-231 breast
[38] = system: RXF 393 renal
[39] = system: MOLT-4 leukemia
[40] = system: NCI-H522 lung
[41] = system: DU-145 prostate
[42] = system: SNB-75 CNS
[43] = system: K-562 leukemia
[44] = system: CAKI-1 renal
[45] = system: PC-3 prostate
[46] = system: NCI-H460 lung
[47] = system: CCRF-CEM leukemia
[48] = system: SK-MEL-2 melanoma
[49] = system: LOX IMVI melanoma
[50] = system: HOP-92 NSCLC
[51] = system: SK-OV-3 ovarian
[52] = system: BT-549 breast
[53] = system: SK-MEL-5 melanoma
[54] = system: NCI/ADR-RES ovarian
[55] = system: MALME-3M melanoma
[56] = system: HL-60(TB) leukemia
[57] = system: A498 renal

COc1ccc2nc(C3=CN(C4OC(CO)C(O)C(O)C4O)C4C=CC=CC34)sc2c1 (stereo unspecified)
GI50 [1]: 87.5 µM
TGI [1]: > 100 µM
GI50 [2]: 34.4 µM
TGI [2]: 94.4 µM
GI50 [3]: 32.4 µM
TGI [3]: > 100 µM
GI50 [4]: 29.7 µM
TGI [4]: 94.1 µM
GI50 [5]: 40.3 µM
TGI [5]: > 100 µM
GI50 [6]: 27.2 µM
TGI [6]: > 100 µM
GI50 [7]: > 100 µM
TGI [7]: > 100 µM
GI50 [8]: 41.1 µM
TGI [8]: > 100 µM
GI50 [9]: 22.6 µM
TGI [9]: 56.9 µM
GI50 [10]: 21.4 µM
TGI [10]: 79.3 µM
GI50 [11]: > 100 µM
TGI [11]: > 100 µM
GI50 [12]: 39.7 µM
TGI [12]: > 100 µM
GI50 [13]: 22.2 µM
TGI [13]: 67.6 µM
GI50 [14]: 28.3 µM
TGI [14]: > 100 µM
GI50 [15]: 22.7 µM
TGI [15]: 53.1 µM
GI50 [16]: 59.9 µM
TGI [16]: > 100 µM
GI50 [17]: 19 µM
TGI [17]: 46.1 µM
GI50 [18]: 45 µM
TGI [18]: > 100 µM
GI50 [19]: 13.5 µM
TGI [19]: 34.8 µM
GI50 [20]: 25.2 µM
TGI [20]: 77.8 µM
GI50 [21]: 28 µM
TGI [21]: 89.3 µM
GI50 [22]: > 100 µM
TGI [22]: > 100 µM
GI50 [23]: 22.7 µM
TGI [23]: 81.7 µM
GI50 [24]: 33.9 µM
TGI [24]: > 100 µM
GI50 [25]: 26.6 µM
TGI [25]: 82.3 µM
GI50 [26]: 26.8 µM
TGI [26]: 83.2 µM
GI50 [27]: 28.5 µM
TGI [27]: > 100 µM
GI50 [28]: 15.6 µM
TGI [28]: 58.4 µM
GI50 [29]: 29.3 µM
TGI [29]: 77.7 µM
GI50 [30]: 37.1 µM
TGI [30]: > 100 µM
GI50 [31]: 33 µM
TGI [31]: 93.8 µM
GI50 [32]: 46.8 µM
TGI [32]: > 100 µM
GI50 [33]: 27.3 µM
TGI [33]: 51.5 µM
GI50 [34]: 24.1 µM
TGI [34]: 75.7 µM
GI50 [35]: 41.9 µM
TGI [35]: > 100 µM
GI50 [36]: > 100 µM
TGI [36]: > 100 µM
GI50 [37]: 23.9 µM
TGI [37]: 61.6 µM
GI50 [38]: 34.6 µM
TGI [38]: > 100 µM
GI50 [39]: 21.9 µM
TGI [39]: 90.8 µM
GI50 [40]: 24 µM
TGI [40]: 76.5 µM
GI50 [41]: 38.8 µM
TGI [41]: > 100 µM
GI50 [42]: 55 µM
TGI [42]: > 100 µM
GI50 [43]: 28.5 µM
TGI [43]: 87.7 µM
GI50 [44]: 40.7 µM
TGI [44]: > 100 µM
GI50 [45]: 38.9 µM
TGI [45]: > 100 µM
GI50 [46]: > 100 µM
TGI [46]: > 100 µM
GI50 [47]: 42.4 µM
TGI [47]: > 100 µM
GI50 [48]: 38.8 µM
TGI [48]: > 100 µM
GI50 [49]: 19.4 µM
TGI [49]: 56.6 µM
GI50 [50]: 67.4 µM
TGI [50]: > 100 µM
GI50 [51]: 96 µM
TGI [51]: > 100 µM
GI50 [52]: 33.9 µM
TGI [52]: > 100 µM
GI50 [53]: 31.5 µM
TGI [53]: 80.7 µM
GI50 [54]: > 100 µM
TGI [54]: > 100 µM

CC(C)(C)n1cc(-c2ccnc(NCCCNS(=O)(=O)c3ccc(Cl)cc3)c2)c(-c2cccc(O)c2)n1
GI50 [1]: 1.89 µM
TGI [1]: 3.72 µM
GI50 [2]: 1.84 µM
TGI [2]: 4.81 µM
GI50 [3]: 1.52 µM
TGI [3]: 3.35 µM
GI50 [4]: 1.65 µM
TGI [4]: 3.1 µM
GI50 [6]: 1.66 µM
TGI [6]: 3.39 µM
GI50 [7]: 2.18 µM
TGI [7]: 5.78 µM
GI50 [55]: 1.66 µM
TGI [55]: 3.41 µM
GI50 [8]: 1.89 µM
TGI [8]: 5.02 µM
GI50 [9]: 1.74 µM
TGI [9]: 3.52 µM
GI50 [10]: 2.11 µM
TGI [10]: 5.04 µM
GI50 [11]: 1.84 µM
TGI [11]: 3.91 µM
GI50 [12]: 2.04 µM
TGI [12]: 5.36 µM
GI50 [13]: 1.65 µM
TGI [13]: 3.29 µM
GI50 [14]: 1.97 µM
TGI [14]: 4.97 µM
GI50 [15]: 1.76 µM
TGI [15]: 3.24 µM
GI50 [17]: 1.97 µM
TGI [17]: 4.48 µM
GI50 [18]: 1.82 µM
TGI [18]: 5.51 µM
GI50 [19]: 1.88 µM
TGI [19]: 4.39 µM
GI50 [20]: 2.22 µM
TGI [20]: 5.81 µM
GI50 [21]: 1.86 µM
TGI [21]: 3.81 µM
GI50 [22]: 1.94 µM
TGI [22]: 4.64 µM
GI50 [23]: 1.67 µM
TGI [23]: 3.22 µM
GI50 [56]: 2.51 µM
TGI [56]: 6.37 µM
GI50 [24]: 1.68 µM
TGI [24]: 3.48 µM
GI50 [25]: 1.79 µM
TGI [25]: 3.37 µM
GI50 [26]: 1.57 µM
TGI [26]: 3.19 µM
GI50 [27]: 1.62 µM
TGI [27]: 3.42 µM
GI50 [28]: 2.03 µM
TGI [28]: 4.54 µM
GI50 [29]: 1.65 µM
TGI [29]: 3.14 µM
GI50 [30]: 1.79 µM
TGI [30]: 3.41 µM
GI50 [31]: 1.72 µM
TGI [31]: 3.45 µM
GI50 [32]: 2.18 µM
TGI [32]: 4.96 µM
GI50 [33]: 2.38 µM
TGI [33]: 5.93 µM
GI50 [34]: 2.08 µM
TGI [34]: 4.44 µM
GI50 [35]: 1.77 µM
TGI [35]: 3.56 µM
GI50 [36]: 1.57 µM
TGI [36]: 3.06 µM
GI50 [37]: 1.87 µM
TGI [37]: 3.87 µM
GI50 [38]: 1.46 µM
TGI [38]: 2.99 µM
GI50 [57]: 1.51 µM
TGI [57]: 3.72 µM
GI50 [39]: 1.91 µM
TGI [39]: 5.64 µM
GI50 [40]: 1.92 µM
TGI [40]: 3.91 µM
GI50 [41]: 2.75 µM
TGI [41]: 7.63 µM
GI50 [42]: 1.37 µM
TGI [42]: 3.03 µM
GI50 [44]: 2.06 µM
TGI [44]: 5.35 µM
GI50 [45]: 1.36 µM
TGI [45]: 3.69 µM
GI50 [46]: 1.94 µM
TGI [46]: 3.92 µM
GI50 [47]: 2.13 µM
TGI [47]: 7.85 µM
GI50 [48]: 1.92 µM
TGI [48]: 3.89 µM
GI50 [49]: 1.73 µM
TGI [49]: 3.15 µM
GI50 [50]: 1.49 µM
TGI [50]: 3.33 µM
GI50 [51]: 2.35 µM
TGI [51]: 6.08 µM
GI50 [52]: 1.67 µM
TGI [52]: 3.16 µM
GI50 [53]: 1.44 µM
TGI [53]: 2.76 µM
GI50 [54]: 1.92 µM
TGI [54]: 4.62 µM
